Assay results taken from patent US9498486B1, “Method for controlled release oral dosage of a vitamin D compound” (OPKO RENAL, LLC, priority 2007, dated 2016).

Tests used:
[1] = Example 1: single-dose pharmacokinetics of serum 25-hydroxyvitamin D3 in miniature swine; format: in vivo; details: Yucatan miniature swine
Experimental: Nine oral vitamin D formulations were prepared according to Table 3 below by homogeneously mixing the identified components in the amounts shown and filling the mixtures into hard gelatin capsules. Formulation 9 is an immediate-release formulation according to the prior art, wherein MIGLYOL 812N is the trade name for caprylic/capric triglycerides, available from CONDEA Chemie GmbH of Cranford, N.J., USA. […] Each group included five animals.
Blood was collected pre-dose, and at 0.5, 1, 2, 4, 6, 8, 12, 24, 48, 96, 168, 240, 336, 432, 504, 576, and 672 hours post dosing. Serum 25-hydroxyvitamin D3 levels were assayed by Liquid Chromatography/Mass Spectrometry/Mass Spectrometry (LC MS/MS).

[2] = Expected rise in serum 25-hydroxyvitamin D3 in a human after a single dose; format: in vivo; details: single dose of 50 μg to a human (about 60 kg)
[3] = 250 μg via intravenous injection, AVG

SMILES	AUC (0-672 hr) ([1]; 250 μg 25-hydroxyvitamin D3 via intravenous injection, AVG)	BA ([1]; 250 μg via intravenous injection)	AUC (0-INF) [1, 3]	Cmax [1, 3]	T1/2 [1, 3]	Tmax [1, 3]	expected increase in serum levels of 25-hydroxyvitamin D3 [2]
C=C1CC[C@H](O)C/C1=C/C=C1\CCC[C@]2(C)[C@@H]([C@H](C)CCCC(C)(C)O)CC[C@@H]12 [Group 10, 25-hydroxyvitamin D3]	15.038 µg·h/mL	100.0%	16.6161 µg·h/mL	0.1549 µg/mL	132.4 h	1.5 h	
C=C1CC[C@H](O)C/C1=C/C=C1\CCC[C@]2(C)[C@@H]([C@H](C)CCCC(C)(C)O)CC[C@@H]12 [25-hydroxyvitamin D3]							about 1.4 ng/ml
